Source: ChEMBL document CHEMBL1147239, “New antioxidant C-glucosylxanthones from the stems of Arrabidaea samydoides” (J Nat Prod, 2003)

tested on: Radical scavenging activity; test: Antioxidant activity assessed as DPPH radical scavenging activity after 30 mins; assay type: functional

Compound | IC50 [µM]
O=C(/C=C/c1ccccc1)O[C@@H]1[C@@H](O)[C@H](O)[C@@H](CO)O[C@H]1c1c(O)cc2oc3cc(O)c(O)cc3c(=O)c2c1O | 31.4
O=C(O[C@@H]1[C@@H](O)[C@H](O)[C@@H](CO)O[C@H]1c1c(O)cc2oc3cc(O)c(O)cc3c(=O)c2c1O)c1ccccc1 | 32.7
O=c1c2cc(O)c(O)cc2oc2cc(O)c([C@@H]3O[C@H](CO)[C@@H](O)[C@H](O)[C@H]3O)c(O)c12 [MANGIFERIN] | 35
O=C(O[C@@H]1[C@@H](O)[C@H](O)[C@@H](CO)O[C@H]1c1c(O)cc2oc3cc(O)c(O)cc3c(=O)c2c1O)c1ccc(O)cc1 [MURAXANTHONE] | 30.7
C[C@@H]1O[C@@H](OC[C@H]2O[C@@H](Oc3c(-c4ccc(O)c(O)c4)oc4cc(O)cc(O)c4c3=O)[C@H](O)[C@@H](O)[C@@H]2O)[C@H](O)[C@H](O)[C@H]1O [RUTIN] | 12.3

Further lines, results first:

IC50 [µM] | Compound
25.4 | O=C(/C=C/c1ccc(O)cc1)O[C@@H]1[C@@H](O)[C@H](O)[C@@H](CO)O[C@H]1c1c(O)cc2oc3cc(O)c(O)cc3c(=O)c2c1O
17.8 | O=C(/C=C/c1ccc(O)c(O)c1)O[C@@H]1[C@@H](O)[C@H](O)[C@@H](CO)O[C@H]1c1c(O)cc2oc3cc(O)c(O)cc3c(=O)c2c1O
